According to patent US7585941B2 (priority 2004, dated 2009):
Where two headings read alike, the source gives them in different places.

What was measured:
rMOR-1 [1] = target: T1, rMOR-1 (Rattus norvegicus, UniProt P33535); assay: biochemical; format: biochemical
Protocol: (§1) Basal [^35S]GTPγS binding was assessed in membranes from cells stably transfected with the individual variants. The ability multiple concentrations of the indicated opioid to stimulate [^35S]GTPγS binding was determined. […] Results are the means ±S.E.M. of at least three independent determinations.

rMOR-1 (no Exon 4) = rMOR-1 (no Exon 4) (Rattus norvegicus, UniProt P33535); assay: biochemical; format: biochemical
Protocol: as §1

rMOR-1A [2] = target: T2, rMOR-1A (Rattus norvegicus, UniProt P33535); assay: biochemical; format: biochemical
Protocol: as §1

rMOR-1C1 [3] = target: T3, rMOR-1C1 (Rattus norvegicus, UniProt P33535); assay: biochemical; format: biochemical
Protocol: as §1

rMOR-1D [4] = target: rMOR-1D (Rattus norvegicus, UniProt P33535, I238V); assay: biochemical; format: biochemical
Protocol: as §1

hMOR-1 variants = settings: for range of the maximal inhibitions among the variants: relative efficacy, Table 5
hMOR-1 = hMOR-1 (Homo sapiens, UniProt P35372); assay: biochemical; format: binding
hMOR-1A = hMOR-1A (Homo sapiens, UniProt P35372); assay: biochemical; format: binding
hMOR-1B1 = hMOR-1B1 (Homo sapiens, UniProt P35372); format: binding
hMOR-1B2 = hMOR-1B2 (Homo sapiens, UniProt P35372); assay: biochemical; format: binding
hMOR-1B3 = hMOR-1B3 (Homo sapiens, UniProt P35372); assay: biochemical; format: binding
hMOR-1B4 [5] = target: hMOR-1B4 (Homo sapiens, UniProt P35372); assay: biochemical; format: binding
hMOR-1Y = hMOR-1Y (Homo sapiens, UniProt P35372); assay: biochemical; format: binding
rMOR-1 [6] = target: T1, rMOR-1; format: binding
rMOR-1 (no E4) = target: T4, rMOR-1 (no E4) (Rattus norvegicus, UniProt P33535); assay: biochemical; format: binding
T4 construct: rMOR-1 no E 4; expressed in transfected cells

rMOR-1A [7] = target: T2, rMOR-1A; assay: biochemical; format: binding
rMOR-1C1 [8] = target: T3, rMOR-1C1; assay: biochemical; format: binding
rMOR-1D [9] = target: T5, rMOR-1D (Rattus norvegicus, UniProt P33535); assay: biochemical; format: binding
rMOR-1D [10] = target: T5, rMOR-1D; assay: biochemical; format: biochemical
Protocol: as §1

[11] = as an analgesic and as a respiratory depressant; background statement; cited from earlier work
hMOR-1B4 [12] = target: hMOR-1B4 (Homo sapiens, UniProt P35372, I109V); assay: biochemical; format: binding
hMOR-1B5 = hMOR-1B5 (Homo sapiens, UniProt P35372); settings: cho cells

C[C@@H](NC(=O)[C@@H](N)Cc1ccc(O)cc1)C(=O)NCC(=O)N(C)[C@@H](Cc1ccccc1)C(=O)NCCO [DAMGO, [D-Ala^2,MePhe^4,Gly(ol)^5]enkephalin]
Max Stim (%) (rMOR-1 [1]; percent increase over basal binding, rMOR-1): 233 ± 44% | Max Stim (%) (rMOR-1 (no Exon 4); percent increase over basal binding, rMOR-1 (no Exon 4)): 196 ± 37% | Max Stim (%) (rMOR-1A [2]; percent increase over basal binding, rMOR-1A): 176 ± 24% | Max Stim (%) (rMOR-1C1 [3]; percent increase over basal binding, rMOR-1C1): 233 ± 45% | Max Stim (%) (rMOR-1D [4]; percent increase over basal binding, rMOR-1D): 113 ± 22% | range of the maximal inhibitions among the variants (hMOR-1 variants): 63-100%

CC1(C)SSC(C)(C)[C@@H](NC(=O)[C@@H](N)Cc2ccc(O)cc2)C(=O)NCC(=O)N[C@@H](Cc2ccccc2)C(=O)N[C@H]1C(=O)O [DPDPE, [D-Pen^2, D-Pen-^5]enkephalin]
competition of [3H]DAMGO binding (in words) (human MOR-1 variants): inactive

CC(C)C[C@H](NC(=O)[C@H](Cc1ccccc1)NC(=O)CNC(=O)[C@@H](CO)NC(=O)[C@@H](N)Cc1ccc(O)cc1)C(=O)N[C@H](C(=O)O)[C@@H](C)O [DSLET, [D-Ser^2, Leu^5]enkephalin-Thr^6]
Ki (hMOR-1): 19.1 ± 5.8 nM | Ki (hMOR-1A): 19.7 ± 7.7 nM | Ki (hMOR-1B1): 13.9 ± 4.9 nM | Ki (hMOR-1B2): 34.4 ± 6.4 nM | Ki (hMOR-1B3): 16.4 ± 2.8 nM | Ki (hMOR-1B4 [5]): 22.3 ± 2 nM | Ki (hMOR-1Y): 15.4 ± 3.5 nM | Ki (rMOR-1 [6]): 30.9 ± 1.9 nM | Ki (rMOR-1 (no E4)): 24.2 ± 1.9 nM | Ki (rMOR-1A [7]): 44.5 ± 5.1 nM | Ki (rMOR-1C1 [8]): 45 ± 8.7 nM | Ki (rMOR-1D [9]): 27.3 ± 7.3 nM | EC50 (rMOR-1 [1]): 76 ± 17 nM | Max Stim (%) (rMOR-1 [1]): 251 ± 5% | EC50 (rMOR-1 (no Exon 4)): 690 ± 179 nM | Max Stim (%) (rMOR-1 (no Exon 4)): 226 ± 15% | EC50 (rMOR-1A [2]): 127 ± 45 nM | Max Stim (%) (rMOR-1A [2]): 206 ± 23% | EC50 (rMOR-1C1 [3]): 253 ± 75 nM | Max Stim (%) (rMOR-1C1 [3]): 312 ± 19% | EC50 (rMOR-1D [10]): 540 ± 129 nM | Max Stim (%) (rMOR-1D [4]): 187 ± 19%

COc1ccc2c3c1O[C@H]1[C@@H](O)C=C[C@H]4[C@@H](C2)N(C)CC[C@@]341 [codeine]
effectiveness orally relative to parenterally [11]: approximately 60%

CC[C@H](C)[C@H](NC(=O)[C@H](C)NC(=O)[C@H](CC(N)=O)NC(=O)[C@H](CCCCN)NC(=O)[C@H](Cc1ccccc1)NC(=O)[C@H](CC(C)C)NC(=O)[C@@H](NC(=O)[C@@H](NC(=O)[C@H](CC(C)C)NC(=O)[C@@H]1CCCN1C(=O)[C@@H](NC(=O)[C@H](CCC(N)=O)NC(=O)[C@H](CO)NC(=O)[C@H](CCCCN)NC(=O)[C@H](CCC(=O)O)NC(=O)[C@H](CO)NC(=O)[C@@H](NC(=O)[C@H](CCSC)NC(=O)[C@H](Cc1ccccc1)NC(=O)CNC(=O)CNC(=O)[C@@H](N)Cc1ccc(O)cc1)[C@@H](C)O)[C@@H](C)O)C(C)C)[C@@H](C)O)C(=O)N[C@H](C(=O)N[C@@H](CCCCN)C(=O)N[C@@H](CC(N)=O)C(=O)N[C@@H](C)C(=O)N[C@@H](Cc1ccc(O)cc1)C(=O)N[C@@H](CCCCN)C(=O)N[C@@H](CCCCN)C(=O)NCC(=O)N[C@@H](CCC(=O)O)C(=O)O)[C@@H](C)CC [β-Endorphin]
affinity for hMOR-1B2 compared to other variants (in words) (hMOR-1B2): lower affinities | affinity for hMOR-1B4 compared to other variants (in words) (hMOR-1B4 [12]): lower affinities | IC50 value variation between hMOR-1 and hMOR-1B5 (hMOR-1B5): over 16 fold | variation of IC50 values among the variants (hMOR-1 variants; cAMP inhibition, among human variants): 3- to 16 fold | range of the maximal inhibitions among the variants (hMOR-1 variants): 72-100%

Endomorphin 1
affinity for hMOR-1B2 compared to other variants (in words) (hMOR-1B2): relative lower affinities | EC50/Ki (rMOR-1 [1]): 3.4 | Max Stim (%) (rMOR-1 [1]): 320 ± 23% | EC50/Ki (rMOR-1 (no Exon 4)): 25.9 | Max Stim (%) (rMOR-1 (no Exon 4)): 189 ± 16% | EC50/Ki (rMOR-1A [2]): 2.3 | Max Stim (%) (rMOR-1A [2]): 205 ± 34% | EC50/Ki (rMOR-1C1 [3]): 13.8 | Max Stim (%) (rMOR-1C1 [3]): 377 ± 40% | EC50/Ki (rMOR-1D [4]): 25.6 | Max Stim (%) (rMOR-1D [4]): 145 ± 29%

Endomorphin 2
fold less potent in competing binding to hMOR-1 (hMOR-1): 5- to 7 fold
